Measured values from patent publication US20260234112A1, “COMPOUNDS, COMPOSITIONS, AND METHODS OF USE THEREOF” (Type6 Therapeutics, Inc., priority 2023, published 2026).

The compounds below were run against T1, Cdk2(2-298) (Homo sapiens, UniProt P24941) (assay: Surface Plasmon Resonance (SPR) compound interaction, Biacore 8K). Settings: single-cycle kinetics (SCK, "S"), dissociation 1800 sec, read-out: Activity rating (KD).
T1 construct: Biotinylated N-terminal avi-tagged Cdk2(2-298) or Cdk1(1-297) was immobilized
Type: binding
Experimental: Compound interaction was profiled using a Biacore 8K instrument (Cytiva). Biotinylated N-terminal avi-tagged Cdk2(2-298) or Cdk1(1-297) was immobilized on a series S sensor Chip SA at a capture level between 2500 RU and 3000 RU (Cdk2) or 7000 RU (Cdk1) in buffer (25 mM HEPES, 150 mM NaCl, 0.05% Tween20, pH 7.5). A compound dilution plate (8 concentrations, 3-fold dilution) in DMSO was prepared (100× assay concentration). From this plate, compound DMSO stock solution was transferred into buffer, yielding a final DMSO concentration of 1% in assay. The remaining buffer was supplemented with 1% DMSO. Compounds were injected in a series of increasing concentrations in multi-cycle kinetics (MCK, “M”) or single-cycle kinetics (SCK, “S”) mode at a flow rate of 30 μl/min for 120 sec and dissociation was profiled for 180 sec (MCK) or 1800 sec (SCK). Data were analysed using Biacore Insight Evaluation Software (Cytiva).

`CCc1ccc(-c2ccnc(N[C@H]3CC[C@H](N)CC3)n2)c(Oc2ccc(NS(=O)(=O)c3ccccc3Cl)cc2F)c1` [Compound 17, N-[4-[2-[2-[(1r,4r)(4-Aminocyclohexyl)amino]pyrimidin-4-yl]-5-ethylphenoxy]-3-fluorophenyl] 2-chlorobenzenesulfonamide] and `CC(C)c1ccc(-c2ccnc(N[C@H]3CC[C@H](N)CC3)n2)c(Oc2ccc(NS(=O)(=O)c3ccccc3Cl)cc2F)c1` [Compound 20, N-[4-[2-[2-[(1r,4r)(4-Aminocyclohexyl)amino]pyrimidin-4-yl]-5-(1-methylethyl)phenoxy]-3-fluorophenyl] 2-chlorobenzenesulfonamide] fall in the same range of Kd: 11 to 100 nM for the first, 11 to 100 nM for the second.

First: N[C@H]1CC[C@H](Nc2nccc(-c3ccc(-c4ccccc4)cc3Oc3ccc(NS(=O)(=O)c4ccccc4Cl)cc3F)n2)CC1 [Compound 18, N-[4-[2-[2-[(1r,4r)(4-Aminocyclohexyl)amino]pyrimidin-4-yl]-5-phenylphenoxy]-3-fluorophenyl] 2-chlorobenzenesulfonamide]
Second: N[C@H]1CC[C@H](Nc2nccc(-c3cc4ccccc4cc3Oc3ccc(NS(=O)(=O)c4ccccc4Cl)cc3F)n2)CC1 [Compound 23, N-[4-[2-[2-[(1r,4r)(4-Aminocyclohexyl)amino]pyrimidin-4-yl]naphthyl-3-oxy]-3-fluorophenyl] 2-chlorobenzenesulfonamide]
The Kd of the first is higher: greater than 5000 nM for the first, no more than 10 nM for the second. The second binds more tightly here.

`N[C@H]1CC[C@H](Nc2nccc(-c3ccc(C4CC4)cc3Oc3ccc(NS(=O)(=O)c4ccccc4Cl)cc3F)n2)CC1` [Compound 19, N-[4-[2-[2-[(1r,4r)(4-Aminocyclohexyl)amino]pyrimidin-4-yl]-5-cyclopropylphenoxy]-3-fluorophenyl] 2-chlorobenzenesulfonamide] and `N[C@H]1CC[C@H](Nc2nccc(-c3ccc(C4CCCCC4)cc3Oc3ccc(NS(=O)(=O)c4ccccc4Cl)cc3F)n2)CC1` [Compound 22, N-[4-[2-[2-[(1r,4r)(4-Aminocyclohexyl)amino]pyrimidin-4-yl]-5-cyclohexylphenoxy]-3-fluorophenyl] 2-chlorobenzenesulfonamide] fall in the same range of Kd: 11 to 100 nM for the first, 11 to 100 nM for the second.

First: C=Cc1ccc(-c2ccnc(N[C@H]3CC[C@H](N)CC3)n2)c(Oc2ccc(NS(=O)(=O)c3ccccc3Cl)cc2F)c1 [Compound 21, N-[4-[2-[2-[(1r,4r)(4-Aminocyclohexyl)amino]pyrimidin-4-yl]-5-ethenylphenoxy]-3-fluorophenyl] 2-chlorobenzenesulfonamide]
Second: N[C@H]1CC[C@H](Nc2nccc(-c3cnccc3Oc3ccc(NS(=O)(=O)c4ccccc4Cl)cc3F)n2)CC1 [Compound 24, N-[4-[[3-[2-(1r,4r)[(4-aminocyclohexyl)amino]pyrimidin-4-yl]-4-pyridyl]oxy]-3-fluoro-phenyl]-2-chloro-benzenesulfonamide]
The Kd of the first is higher: 11 to 100 nM for the first, no more than 10 nM for the second. The second binds more tightly here.

Compared with `O=S(=O)(Nc1ccc(Oc2ccncc2-c2ccnc(N[C@H]3CCCNC3)n2)cc1F)c1ccccc1Cl` [Compound 25, N-[2-Fluoro-4-[[3-[2-[[(3S)-3-piperidyl]amino]pyrimidin-4-yl]-4-pyridyl]oxy]phenyl] 2-chlorobenzenesulfonamide], `O=S(=O)(Nc1ccc(Oc2ccncc2-c2ccnc(N[C@H]3CCCNC3)n2)c(F)c1)c1ccccc1Cl` [Compound 34, N-[3-Fluoro-4-[[3-[2-[[(3S)-3-piperidyl]amino]pyrimidin-4-yl]-4-pyridyl]oxy]phenyl] 2-chlorobenzenesulfonamide] is lower in Kd: 11 to 100 nM for the first, no more than 10 nM for the second. The second binds more tightly here.

First: N[C@H]1CC[C@H](Nc2nccc(-c3cnccc3Oc3ccc(NS(=O)(=O)c4c(F)cccc4F)cc3F)n2)CC1 [Compound 26, N-[4-[[3-[2-[(1r,4r)(4-Aminocyclohexyl)amino]pyrimidin-4-yl]-4-pyridyl]oxy]-3-fluoro-phenyl] 2,6-difluoro-benzenesulfonamide]
Second: N[C@H]1CC[C@H](Nc2nccc(-c3cnccc3Oc3ccc(NS(=O)(=O)c4cccs4)cc3F)n2)CC1 [Compound 29]
The Kd of the first is lower: no more than 10 nM for the first, 11 to 100 nM for the second. The first binds more tightly here.

First: COc1ccccc1S(=O)(=O)Nc1ccc(Oc2ccncc2-c2ccnc(N[C@H]3CC[C@H](N)CC3)n2)c(F)c1 [Compound 27, N-(4-((3-(2-((1r,4r)-4-aminocyclohexyl)amino)pyrimidin-4-yl)pyridin-4-yloxy)-3-fluorophenyl) 2-methoxybenzenesulfonamide]
Second: COc1ccc(Br)cc1S(=O)(=O)Nc1ccc(Oc2ccncc2-c2ccnc(N[C@H]3CC[C@H](N)CC3)n2)c(F)c1 [Compound 28, N-(4-((3-(2-((1r,4r)-4-aminocyclohexyl)amino)pyrimidin-4-yl)pyridin-4-yloxy)-3-fluorophenyl) 5-bromo-2-methoxybenzenesulfonamide]
The Kd of the first is lower: 11 to 100 nM for the first, 100 to 1000 nM for the second.

`N#Cc1ccc(S(=O)(=O)Nc2ccc(Oc3ccncc3-c3ccnc(N[C@H]4CC[C@H](N)CC4)n3)c(F)c2)cc1` [Compound 30, N-(4-((3-(2-((1r,4r)-4-aminocyclohexyl)amino)pyrimidin-4-yl)pyridin-4-yloxy)-3-fluorophenyl) 4-cyanobenzenesulfonamide] and `NC(=O)c1ccc(S(=O)(=O)Nc2ccc(Oc3ccncc3-c3ccnc(N[C@H]4CC[C@H](N)CC4)n3)c(F)c2)cc1` [Compound 38, 4-(N-(4-((3-(2-(((1r,4r)-4-aminocyclohexyl)amino)pyrimidin-4-yl)pyridin-4-yl)oxy)-3-fluorophenyl)sulfamoyl) benzamide] fall in the same range of Kd: 100 to 1000 nM for the first, 100 to 1000 nM for the second.

`N[C@H]1CC[C@H](Nc2nccc(-c3cnccc3Oc3ccc(NS(=O)(=O)c4csc5ccccc45)cc3F)n2)CC1` [Compound 31, N-(4-((3-(2-((1r,4r)-4-aminocyclohexyl)amino)pyrimidin-4-yl)pyridin-4-yloxy)-3-fluorophenyl) benzo[b]thiophene-3-sulfonamide] and `N[C@H]1CC[C@H](Nc2nccc(-c3cnccc3Oc3ccc(NS(=O)(=O)c4ccccc4)cc3F)n2)CC1` [Compound 37, N-[4-[[3-[2-[(1r,4r)(4-Aminocyclohexyl)amino]pyrimidin-4-yl]-4-pyridyl]oxy]-3-fluorophenyl] benzenesulfonamide] fall in the same range of Kd: 11 to 100 nM for the first, 11 to 100 nM for the second.

Compared with `N[C@H]1CC[C@H](Nc2nccc(-c3cnccc3Oc3ccc(NS(=O)(=O)c4ccccc4)c(C(F)(F)F)c3)n2)CC1` [Compound 32, N-(4-((3-(2-(((1r,4r)-4-Aminocyclohexyl)amino)pyrimidin-4-yl)pyridin-4-yl)oxy)-2-(trifluoromethyl)phenyl) benzenesulfonamide], `N[C@H]1CC[C@H](Nc2nccc(-c3cnccc3Oc3ccc(NS(=O)(=O)Cc4ccccc4)cc3F)n2)CC1` [Compound 44, N-[4-[[3-[2-[(1r,4r)(4-Aminocyclohexyl)amino]pyrimidin-4-yl]-4-pyridyl]oxy]-3-fluorophenyl] phenylmethanesulfonamide] is higher in Kd: 100 to 1000 nM for the first, 1000 to 5000 nM for the second.

Compared with `C=Cc1ccccc1S(=O)(=O)Nc1ccc(Oc2ccncc2-c2ccnc(N[C@H]3CC[C@H](N)CC3)n2)c(F)c1` [Compound 33, N-[4-[[3-[2-(1r,4r)[(4-Aminocyclohexyl)amino]pyrimidin-4-yl]-4-pyridyl]oxy]-3-fluoro-phenyl]-2-ethenylbenzenesulfonamide], `N[C@H]1CC[C@H](Nc2nccc(-c3cnccc3Oc3ccc(NS(=O)(=O)c4cccc5cccnc45)cc3F)n2)CC1` [Compound 42, N-[4-[[3-[2-[(1r,4r)(4-aminocyclohexyl)amino]pyrimidin-4-yl]-4-pyridyl]oxy]-3-fluorophenyl]quinoline-8-sulfonamide] is higher in Kd: no more than 10 nM for the first, 100 to 1000 nM for the second.

`Cc1ccc(C#N)cc1S(=O)(=O)Nc1ccc(Oc2ccncc2-c2ccnc(N[C@H]3CC[C@H](N)CC3)n2)c(F)c1` [Compound 35, N-(4-((3-(2-(((1r,4r)-4-aminocyclohexyl)amino)pyrimidin-4-yl)pyridin-4-yl)oxy)-3-fluorophenyl) 5-cyano-2-methylbenzenesulfonamide] and `COc1ccc(S(=O)(=O)Nc2ccc(Oc3ccncc3-c3ccnc(N[C@H]4CC[C@H](N)CC4)n3)c(F)c2)c(C)c1C` [Compound 43, N-[4-[[3-[2-[(1r,4r)(4-aminocyclohexyl)amino]pyrimidin-4-yl]-4-pyridyl]oxy]-3-fluorophenyl] 4-methoxy-2,3-dimethyl-benzenesulfonamide] fall in the same range of Kd: 11 to 100 nM for the first, 11 to 100 nM for the second.

First: N[C@H]1CC[C@H](Nc2nccc(-c3cnccc3Oc3ccc(NS(=O)(=O)C4CC4)cc3F)n2)CC1 [Compound 36, N-[4-[[3-[2-[(1r,4r)(4-Aminocyclohexyl)amino]pyrimidin-4-yl]-4-pyridyl]oxy]-3-fluorophenyl] cyclopropanesulfonamide]
Second: N[C@H]1CC[C@H](Nc2nccc(-c3cnccc3Oc3ccc(NS(=O)(=O)C4CCC4)cc3F)n2)CC1 [Compound 39, N-[4-[[3-[2-[(1r,4r)(4-Aminocyclohexyl)amino]pyrimidin-4-yl]-4-pyridyl]oxy]-3-fluorophenyl]cyclobutanesulfonamide]
The Kd of the first is higher: greater than 5000 nM for the first, 1000 to 5000 nM for the second. The second binds more tightly here.

Compared with `CS(=O)(=O)Nc1ccc(Oc2ccncc2-c2ccnc(N[C@H]3CC[C@H](N)CC3)n2)c(F)c1` [Compound 40, N-(4-((3-(2-(((1r,4r)-4-aminocyclohexyl)amino)pyrimidin-4-yl)pyridin-4-yl)oxy)-3-fluorophenyl) methanesulfonamide], `N[C@H]1CC[C@H](Nc2nccc(-c3cnccc3Oc3ccc(NS(=O)(=O)c4ccc5c(c4)OCO5)cc3F)n2)CC1` [Compound 41, N-[4-[[3-[2-[(1r,4r)(4-aminocyclohexyl)amino]pyrimidin-4-yl]-4-pyridyl]oxy]-3-fluorophenyl]1,3-benzodioxol-5-ylsulfonamide] is lower in Kd: 1000 to 5000 nM for the first, 100 to 1000 nM for the second.
